Data published in US4048299A, “Anticaries confectionaries and oral health products” (William Wrigley, Jr. Co., priority 1970, dated 1977).

How the values were obtained:
[1] = system: Lactobacillus casei ATCC 4646; test: Growth inhibition by aldehydes in product vehicles, pour-plate technique; format: cell-based; conditions: 1 to 5 percent aldehyde
Summary of the method: (§1)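 Aldehydes (1 to 5 percent by weight) were formulated into syrups, candies, mouthwash, toothpaste or toothpowder, added directly or as aqueous extracts to medium without a carbon source mixed 1:1 with filter-sterilized human saliva. Sugar came from the product or added sucrose. Growth over up to 24 hours was read by pour-plate count.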

Streptococcus spp. KI-R = test: as above; format: cell-based; conditions: 1 to 5 percent aldehyde
Summary of the method: as §1

Streptococcus sp. FA-1 = test: Acid production inhibition, broth-tube technique; conditions: single agent
Excerpt: (§5) The data was compiled through well-known broth tube analysis techniques.
(a)Measured by broth-tube technique.

Lactobacillus casei = test: Acid production inhibition, broth-tube technique; conditions: single agent
Excerpt: as §5
(a)Measured by broth-tube technique.

[2] = In vivo caries evaluation, albino hamster; conditions: Table I, 56 days
Excerpt: (§2) Standard laboratory techniques were used to complie the data presented. In each case the aldehyde was incorporated into each specimen's food in a one percent, by weight, quantity, over a period of several weeks. In all cases, caries reduction was noted.
(§3) The aldehydes tested in vivo were pyruvaldehyde, d,1-glyceraldehyde, crystalline dimer, glycolaldehyde, octanaldehyde, nonanaldehyde, decanaldehyde, undecylenic aldehyde, and lauric aldehyde. The polyaldehydes tested were dialdehyde starch, dialdehyde starch 50 percent oxidized, dialdehyde starch 90 percent oxidized, and dialdehyde galactomannan gum.
(§4) ^(a) Agents were incorporated in the diet at a 1 percent level.

[3] = system: Mixed Oral Microorganisms; test: Acid production inhibition, broth-tube technique; conditions: single agent
Excerpt: as §5
(a)Measured by broth-tube technique.

oral microorganisms = test: Acid production inhibition in vitro (summary); format: cell-based; conditions: in words, summary of tables
Experimental: Other in vitro evaluations utilized a broth tube analysis of representative anticaries aldehydes incorporated in the vehicles of this invention against cultures of acid producing microorganisms normally present in the mouth. Standard laboratory procedures were utilized throughout to evaluate the acid production inhibition and growth inhibition over the incubation time of up to 24 hours.

[4] = In vivo caries evaluation, Osborne-Mendel strain 2 rat; set-up: species or system rat (Osborne-Mendel strain 2); conditions: Table I; 90 days; Student's test, 95 percent confidence limit
Excerpt: as §2, §3, §4

[5] = in compressed candy tablet, 2 h incubation
[6] = in compressed candy tablet, 5 h incubation
[7] = in compressed candy tablet, 24 h incubation
[8] = in dextrose syrup, 2 h incubation
[9] = in dextrose syrup, 5 h incubation
[10] = in dextrose syrup, 24 h incubation
[11] = in sucrose syrup, 2 h incubation
[12] = in sucrose syrup, 5 h incubation
[13] = in sucrose syrup, 24 h incubation
[14] = in tooth powder (aqueous extract), 2 h incubation
[15] = in tooth powder (aqueous extract), 5 h incubation
[16] = in tooth powder (aqueous extract), 24 h incubation
[17] = in toothpaste (aqueous extract), 2 h incubation
[18] = in toothpaste (aqueous extract), 5 h incubation
[19] = in toothpaste (aqueous extract), 24 h incubation
[20] = Student's test, 95 percent confidence limit

O=C[C@H](O)CO (racemic) [d,1-Glyceraldehyde]
Growth Inhibition [1, 5]: N.S.
Growth Inhibition [1, 6]: N.S.
Growth Inhibition [1, 7]: 100 Per Cent
Growth Inhibition [1, 8]: N.S.
Growth Inhibition [1, 9]: N.S.
Growth Inhibition [1, 10]: > 99.99 Per Cent
Growth Inhibition [1, 11]: 0 Per cent
Growth Inhibition [1, 12]: N.S.
Growth Inhibition [1, 13]: 99 Per cent
Growth Inhibition [1, 14]: N.S.
Growth Inhibition [1, 15]: N.S.
Growth Inhibition [1, 16]: 99.3 Per cent
Growth Inhibition [1, 17]: N.S.
Growth Inhibition [1, 18]: N.S.
Growth Inhibition [1, 19]: 100 Per cent
Growth Inhibition (Streptococcus spp. KI-R; [5]): 0 Per Cent
Growth Inhibition (Streptococcus spp. KI-R; [6]): N.S.
Growth Inhibition (Streptococcus spp. KI-R; [7]): N.S.
Growth Inhibition (Streptococcus spp. KI-R; [8]): 98 Per Cent
Growth Inhibition (Streptococcus spp. KI-R; [9]): > 99.99 Per Cent
Growth Inhibition (Streptococcus spp. KI-R; [10]): > 100 Per Cent
Growth Inhibition (Streptococcus spp. KI-R; in mouthwash, 2 h incubation): > 99.99 Per cent
Growth Inhibition (Streptococcus spp. KI-R; in mouthwash, 5 h incubation): 99.99 Per cent
Growth Inhibition (Streptococcus spp. KI-R; in mouthwash, 24 h incubation): 100 Per cent
Growth Inhibition (Streptococcus spp. KI-R; [11]): 90 Per cent
Growth Inhibition (Streptococcus spp. KI-R; [12]): 90 Per cent
Growth Inhibition (Streptococcus spp. KI-R; [13]): 99 Per cent
Growth Inhibition (Streptococcus spp. KI-R; [14]): 99.88 Per cent
Growth Inhibition (Streptococcus spp. KI-R; [15]): 99.99 Per cent
Growth Inhibition (Streptococcus spp. KI-R; [16]): 100 Per cent
Growth Inhibition (Streptococcus spp. KI-R; [17]): N.S.
Growth Inhibition (Streptococcus spp. KI-R; [18]): N.S.
Growth Inhibition (Streptococcus spp. KI-R; [19]): 0 Per cent
Acid Production Inhibition (Streptococcus sp. FA-1; 0.01 percent): 4%
Acid Production Inhibition (Streptococcus sp. FA-1; 0.015 percent): 10%
Acid Production Inhibition (Streptococcus sp. FA-1; 0.02 percent): 21%
Acid Production Inhibition (Lactobacillus casei; 0.02 percent): 11%
Acid Production Inhibition (Lactobacillus casei; 0.03 percent): 17%
Acid Production Inhibition (Lactobacillus casei; 0.04 percent): 22%
Caries Score, Mean Incidence ([2]; 1 percent in diet, L-2000 control 27.5): 8.0
Caries Score, Mean Extent ([2]; 1 percent in diet, L-2000 control 80.9): 21.8
Caries Extent Reduction, statistical evaluation [2, 20]: Significant
Caries Incidence Reduction, statistical evaluation [2, 20]: Significant
Acid Production Inhibition ([3]; 0.03 percent): 7%
Acid Production Inhibition ([3]; 0.04 percent): 12%
Acid Production Inhibition ([3]; 0.05 percent): 19%
Acid Production Inhibition ([3]; 0.06 percent): 30%
Acid Production Inhibition ([3]; 0.07 percent): 40%
Acid Production Inhibition (oral microorganisms): excellent acid production inhibition

O=CCO [Glycolaldehyde]
Growth Inhibition [1, 5]: N.S.
Growth Inhibition [1, 6]: 97.3 Per Cent
Growth Inhibition [1, 7]: 100 Per Cent
Growth Inhibition [1, 8]: N.S.
Growth Inhibition [1, 9]: 98 Per Cent
Growth Inhibition [1, 10]: 100 Per Cent
Growth Inhibition [1, 11]: N.S.
Growth Inhibition [1, 12]: 93 Per cent
Growth Inhibition [1, 13]: > 99.99 Per cent
Growth Inhibition [1, 14]: N.S.
Growth Inhibition [1, 15]: N.S.
Growth Inhibition [1, 16]: 99.99 Per cent
Growth Inhibition [1, 17]: 0 Per cent
Growth Inhibition [1, 18]: N.S.
Growth Inhibition [1, 19]: 100 Per cent
Growth Inhibition (Streptococcus spp. KI-R; [5]): 99.9 Per Cent
Growth Inhibition (Streptococcus spp. KI-R; [6]): N.S.
Growth Inhibition (Streptococcus spp. KI-R; [7]): N.S.
Growth Inhibition (Streptococcus spp. KI-R; [8]): 99.1 Per Cent
Growth Inhibition (Streptococcus spp. KI-R; [9]): 100 Per Cent
Growth Inhibition (Streptococcus spp. KI-R; [10]): 100 Per Cent
Growth Inhibition (Streptococcus spp. KI-R; in mouthwash, 2 h incubation): 99.98 Per cent
Growth Inhibition (Streptococcus spp. KI-R; in mouthwash, 5 h incubation): 100 Per cent
Growth Inhibition (Streptococcus spp. KI-R; in mouthwash, 24 h incubation): 100 Per cent
Growth Inhibition (Streptococcus spp. KI-R; [11]): 80 Per cent
Growth Inhibition (Streptococcus spp. KI-R; [12]): > 99.9 Per cent
Growth Inhibition (Streptococcus spp. KI-R; [13]): > 99.99 Per cent
Growth Inhibition (Streptococcus spp. KI-R; [14]): N.S.
Growth Inhibition (Streptococcus spp. KI-R; [15]): 93.3 Per cent
Growth Inhibition (Streptococcus spp. KI-R; [16]): 100 Per cent
Growth Inhibition (Streptococcus spp. KI-R; [17]): 0 Per cent
Growth Inhibition (Streptococcus spp. KI-R; [18]): N.S.
Growth Inhibition (Streptococcus spp. KI-R; [19]): N.S.
Acid Production Inhibition (Streptococcus sp. FA-1; 0.02 percent): 19%
Acid Production Inhibition (Streptococcus sp. FA-1; 0.03 percent): 39%
Acid Production Inhibition (Streptococcus sp. FA-1; 0.04 percent): 72%
Acid Production Inhibition (Lactobacillus casei; 0.02 percent): 18%
Acid Production Inhibition (Lactobacillus casei; 0.025 percent): 23%
Acid Production Inhibition (Lactobacillus casei; 0.03 percent): 27%
Caries Extent Reduction, statistical evaluation [4]: Significant
Acid Production Inhibition (oral microorganisms): excellent acid production inhibition
